Assay results published in patent US4529589A, “Pharmaceutical composition for the treatment of diabetes mellitus” (priority 1981, dated 1985).

Columns and labels:
[1] = tested on: volunteer suffering from diabetes; experiment: sugar curve after dietic breakfast in volunteer with diabetes in a light form; assay type: in vivo, human
Method: Volunteer (body weight 89 kg) suffered from diabetes in a light form for 10 years. The blood sugar level in the morning on empty stomach was varied from 125 to 190 mg%. On recommendation of the endocrinologist, they were treated with maninyl in a dose of from 0.00125 to 0.0025 g (1/4-1/2 of a tablet) a day. 6 tests were performed including 1 control sugar curve at the background of administration of a dietic breakfast, the 2-nd test--the same curve but with administration, during breakfast, of 0.00125 g of maninyl and 4 tests with the preparation according to the present invention. The doses of insulin in the plates of the preparation of this invention were […]. The duration of resorption of the plates was 9 to 36 minutes. The breakfast was 9-37 minutes thereafter.
The sugar curve obtained after the control test against the background of having a dietic breakfast without hypoglycemic remedies had the following character: the starting blood sugar level was 125 mg%; after 30 minutes since the breakfast--153 mg%; 60 minutes thereafter--155 mg%, 2 hours thereafter--135 mg%, i.e., after 30 and 60 minutes, the blood sugar level was increased by 22 and 24% respectively relative to the initial value.
In a week, the test was repeated; however, during the dietic breakfast, the volunteer was administered 0.00125 g of maninyl (1/4 of a tablet). […] The absolute level of blood sugar was as high as 200 mg%. After 120 minutes, a high blood sugar level was retained--170 mg% which was by 10% higher than the initial value on the same day of investigation.
One week afterwards, the experiment was repeated. The initial level of blood sugar was equal to 190 mg%. The volunteer was administered a plate of the preparation of this invention containing 16 units of insulin (test dose) sublingually; 30 minutes thereafter, the volunteer had breakfast (dietic one). 30 minutes after the breakfast, the blood sugar level was increased up to 200 mg% (by 5% altogether) which was by 17% below the raise in the control test; after 60 minutes--by 26% (240 mg%) which substantially corresponded to the level raise in the control investigation (+2%) and after 120 minutes--reduced by 8% of the initial value (175 mg%) which was by 16% below the level in the control test.

[2] = tested on: volunteer patients-physicians; experiment: sugar curve after glucose load per os (0.7 g/kg) in volunteers; assay type: in vivo, human; conditions: for decrease in the blood sugar level as compared to the control sugar curve: subcutaneous 16 units (after volunteer I.)
Method: The pharmaceutical preparation for the treatment of diabetes mellitus has been studied on volunteer patients-physicians. The experiments have been performed on 8 volunteers. 58 tests were carried out including 9 control tests without administration of insulin, 6 control tests with subcutaneous administration of insulin and 43 experimental tests with the administration of plates of the preparation according to the present invention. The control investigation--a sugar curve--has been taken for every volunteer. This involved determination of the blood sugar level in an empty stomach, whereafter the patient was administered glucose per os at the rate of 0.7 g/kg of the body weight diluted with 200 ml of warm water and then the blood sugar level was determined after 30, 60 and 120 minutes. Therefore, in this manner, the blood sugar level variations were determined under the effect of administration of gluclose including the determination of the maximum increase as a percentage of the starting sugar level in blood in the empty-stomach state. After 1-2 weeks, the investigation with a similar sugar load was repeated simultaneously with subcutaneous administration of crystalline insulin at the rate of 0.1-0.2 unit/kg of the body weight right after the administration of the same dose of glucose. After an additional 1-2 weeks, the investigation with the preparation according to the present invention has been carried out. The preparation according to the present invention in the form of plates of a polymer was placed under the tongue by application of the plates to the lower lingual surface at its root or at any other suitable place of the mucous membrane of the mouth cavity. The content of insulin in the plates was varied from 8 to 150 units. After a complete resorption of the plate, maximum within 60 minutes, the volunteer was given a standard dose of glucose per os. The blood examination for sugar has been performed on an empty stomach after 30, 60 and 120 minutes since the glucose administration. The hypoglycemic effect of the test preparations was evaluated by the difference in sugar levels in blood (%) as compared to the control test (without insulin).

patients = conditions: subcutaneous (sometimes intramuscular) injection, majority of patients; cited from earlier work

## COc1ccc(Cl)cc1C(=O)NCCc1ccc(S(=O)(=O)NC(=O)NC2CCCCC2)cc1 [maninyl]
[1]; 0.00125 g during dietic breakfast, after 30 and 60 minutes, starting level 155 mg%
  raise of the sugar curve, % of the initial value: +29%
[1]; 0.00125 g during dietic breakfast, after 120 minutes
  blood sugar level higher than the initial value: 10%
[1]; 0.00125 g during dietic breakfast, starting level 155 mg%
  absolute level of blood sugar (as high as): 200 mg%
[1]; dose prescribed by the endocrinologist
  hypoglycemic effect (in words): no hypoglycemic effect at all

## crystalline insulin: crystalline insulin administered subcutaneously as comparison
[2]; subcutaneous 8 units (volunteer D.), after 30 minutes
  sugar level higher than the control value: 6%
[2]; subcutaneous 8 units (volunteer D.), after 60 minutes
  sugar level below the control level: 60%
[2]; subcutaneous 8 units (volunteer D.), after 120 minutes
  sugar level above the control level: 20%
[2]; subcutaneous 8 units (volunteer P.), after 30 minutes
  blood sugar level exceeded the control value: 16%
[2]; subcutaneous 8 units (volunteer P.), after 60 minutes
  blood sugar level below the control value: 43%
[2]; subcutaneous 8 units (volunteer P.), after 120 minutes
  blood sugar level below the control: 12%
[2]; subcutaneous 8 units with 56 g glucose (volunteer D.), after 30 minutes
  blood sugar level increased as compared to the initial value: 86%
[2]; subcutaneous 8 units with 56 g glucose (volunteer D.), after 60 minutes
  blood sugar level increased as compared to the initial value: 40%
[2]; subcutaneous 8 units with 56 g glucose (volunteer D.), after 120 minutes
  blood sugar level increased as compared to the initial value: 33%
[2]; subcutaneous 8 units with 56 g glucose (volunteer P.), after 30 minutes
  blood sugar level increased as compared to the initial value: 87%
[2]; subcutaneous 8 units with 56 g glucose (volunteer P.), after 60 minutes
  blood sugar level lowered: 53%
[2]; subcutaneous 8 units with 56 g glucose (volunteer P.), after 120 minutes
  blood sugar level relative to the initial level (in words): returned to the initial level
[2]; after 30 minutes
  decrease in the blood sugar level as compared to the control sugar curve: 55%
[2]; after 60 minutes
  decrease in the blood sugar level as compared to the control sugar curve: 18%
[2]; after 120 minutes
  decrease in the blood sugar level as compared to the control sugar curve: 34%
[2]; subcutaneous 16 units with 56 g glucose (after volunteer I.), after 30 minutes
  sugar level in blood increased relative to the initial value: 31%
[2]; subcutaneous 16 units with 56 g glucose (after volunteer I.), after 60 minutes
  sugar level in blood increased relative to the initial value: 13%
[2]; subcutaneous 16 units with 56 g glucose (after volunteer I.), after 120 minutes
  sugar level in blood reduced relative to the initial value: 7%
patients
  time to maximum effect: 2 to 5 h
